Legend:
β 2-AR [1] = settings: on β 2-AR; response relative to isoproterenol; cited from earlier work
Immobilized β 2-AR = test system: T1, Immobilized β 2-AR; test: Specificity and stability of the oriented β 2-AR column (retention of control drugs); type: binding, Sus scrofa; settings: 20 mM phosphate buffer (pH 7.4), 0.2 mL/min; for Retention times, Immobilized β 2-AR: 37 °C, void time 1.6 min
T1 construct: made in house; host or cells: E. coli BL21 (DE3)
Procedure: (§1) The column containing the oriented immobilised β 2-AR was prepared by packing the stationary phase into a stainless steel column (2.1 mm×5.0 cm) using the slurry method at a pressure of 4.0×10^7 Pa. Phosphate buffer (20 mM, pH 7.4) was used as the slurry solution. The control column containing exposed silica gel and attached histidine was prepared using the same synthesis method as that of the β 2-AR column.
(§2) The mobile phases were prepared by adding 0 to 40 µM of ephedrine hydrochloride as the competing agent to 20 mM phosphate buffer (pH 7.4). All of the mobile phases were filtrated with 0.45 µm Millipore HV filters and degassed by ultrasonication before HPAC analysis. Working solutions of ephedrine and pseudoephedrine were prepared by dissolving the drugs in phosphate buffer (20 mM, pH 7.4) to a concentration of 1.0 mM. The detection wavelength was 220 nm with an injection of 5.0 µL for each drug. The flow rate was 0.2 mL/min for all of the analyses. […] The capacity factor (k') was calculated by detecting the retention time in triplicate for each injected sample using the equation k' = (tR−t0)/t0. When the injection solute was pseudoephedrine, Eq. (1) was used to plot the curve of 1/(k'-X) and [A], whereas Eq. (2) was used to achieve the plot between [drawing 5] and [A] when ephedrine was used as the analyte.
The specificity of the oriented β 2-AR column was tested by determining the retention times of specific drugs on the receptor.

papillary muscle = test system: papillary muscle; parameters: method as in PMID 3004791; settings: positive inotropic effect on the papillary muscle; cited from earlier work
β 2-AR [2] = molecular target: T2, β 2-AR (Sus scrofa, UniProt Q28997); test: Thermodynamic study (zonal elution at 10-45 °C, van't Hoff equation) on oriented immobilised β 2-AR; type: binding; settings: for decrease of association constant / decrease of capacity factor / increase of binding sites: 10 °C to 45 °C; for capacity factor on the β 2-AR column: concentration 4.0 µM; for Kd: Association constant; for main force of the binding: semi-empirical rules of Ross et al.; for ΔS^θ: van't Hoff plot, 10-45 °C
T2 construct: made in house; host or cells: E. coli BL21 (DE3)
From the text: The thermodynamic interaction between β 2-AR and ephedrine plus pseudoephedrine was described by the van't Hoff equation, listed as Eq. (3) and (4). [drawing 3] (3) [drawing 4] (4)
In these equations, R is the ideal gas constant (8.31 J/mol/K), and T is the temperature in Kelvin. According to the semi-empirical rules summarised by Ross et al., when ΔG^θ<0, ΔH^θ>0 and ΔS^θ>0, hydrophobic interaction is the main interaction force during the binding process of a drug to protein. […] If ΔG^θ<0, ΔH^θ<0 and ΔS^θ<0, Van der Waals forces or hydrogen bonds are the major forces of the binding.
The thermodynamic investigation of ephedrine and pseudoephedrine on oriented immobilised β 2-AR was performed at 10, 20, 30, 37 and 45 °C. Eq. (3) and (4) were used to calculate the free energy, enthalpy and entropy during the binding of the two drugs to the receptor. The semi-empirical rules by Ross et al. were utilised to reveal the binding mechanism process of the two drugs to β 2-AR.

β2-ARGsαS = molecular target: β2-ARGsαS; parameters: method as in PMID 9478963; settings: read-out: dissociation constant; cited from earlier work
wild-type β 2-AR = molecular target: wild-type β 2-AR; parameters: method as in PMID 8095262; settings: read-out: dissociation constant; cited from earlier work
β 2-AR [3] = molecular target: T2, β 2-AR; test: Zonal elution on oriented immobilised β 2-AR column (HPAC); type: binding; settings: for concentration of the binding site / capacity factor k′ / association constant / association constant KA: 37 °C; for types of binding site on β 2-AR: linear zonal elution plot
Procedure: The binding of ephedrine and pseudoephedrine to the oriented immobilised β 2-AR was determined by zonal elution. The theory assumes that a known concentration of a competing agent (I) continuously passes through a column containing an immobilised ligand (L) while the injecting volume of an analyte (A) is small enough to be neglected compared with the concentration of I in the mobile phase. Assuming I and A have direct competition at a single binding site on L and the interactions have association/dissociation kinetics, Eq. (1) can be used to calculate the binding of A and I to L [24], [25]. [drawing 1] (1) where X is the capacity factor for A due to the existence of a second type of binding site on the column, and k' is the overall capacity factors of A ascribed to all the types of sites. In this case, the equation assumes the capacity factors of A produced by the individual sites are additive, and an independent estimate of the capacity factors due to the second type of site can be obtained, allowing for the capacity factor attributed to the first type of site 1 (Site 1) to be measured by k 1' = k'-X.
When the column is equilibrated with an eluent at concentration [A] and [I] equal to zero, and the retention of compound A is injected as a perturbation, Eq. (2) is used to determine the binding of A to L: [drawing 2] (2)
Assuming a single type of binding site, a linear expression can be obtained by plotting 1/sqrt (k') as a function of [A] to determine mL and K A. For two types of binding sites, a second term is added to the k' expressions.
as §1, §2

[4] = 12 µM ephedrine in mobile phase
[5] = 24 µM ephedrine in mobile phase
[6] = 30 µM ephedrine in mobile phase

T2 sequence (Q28997 whole entry): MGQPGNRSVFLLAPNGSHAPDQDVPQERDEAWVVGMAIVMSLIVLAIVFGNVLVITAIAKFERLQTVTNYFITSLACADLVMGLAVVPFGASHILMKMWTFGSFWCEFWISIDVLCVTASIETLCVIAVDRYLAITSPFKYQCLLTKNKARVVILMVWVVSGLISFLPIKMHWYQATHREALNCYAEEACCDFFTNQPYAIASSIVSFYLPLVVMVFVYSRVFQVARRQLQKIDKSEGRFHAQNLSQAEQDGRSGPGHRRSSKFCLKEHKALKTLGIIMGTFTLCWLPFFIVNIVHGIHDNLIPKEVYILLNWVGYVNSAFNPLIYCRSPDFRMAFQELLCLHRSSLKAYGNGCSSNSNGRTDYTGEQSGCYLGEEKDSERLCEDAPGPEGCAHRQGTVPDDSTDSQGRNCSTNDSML

## CN[C@H](C)[C@@H](O)c1ccccc1 [1S,2R-ephedrine]
β 2-AR [1]
  EC50: 72 µM

## CN(C)C(=O)Oc1cc(OC(=O)N(C)C)cc(C(O)CNC(C)(C)C)c1 (centres unmarked) [bambuterol]
Immobilized β 2-AR
  peak retained or non-retained on β 2-AR column: Retained
  Retention times, Immobilized β 2-AR: 49.1 min

## CC(C)NCC(O)c1ccccc1Cl (centres unmarked) [clorprenaline]
Immobilized β 2-AR
  peak retained or non-retained on β 2-AR column: Retained
  Retention times, Immobilized β 2-AR: 9.9 min
Immobilized β 2-AR; listed as Clorprenaline
  Retention times, Immobilized β 2-AR: 12.5 min

## CN[C@@H](C)[C@H](O)c1ccccc1 [ephedrine, 1R,2S-ephedrine]
Papillary muscle
  pD2: about 5.95
β 2-AR [2]; 10 °C
  binding sites: 807 µM
  capacity factor on the β 2-AR column: 5.40
β 2-AR [2]
  decrease of association constant: 1.4 fold
  decrease of capacity factor: 1.2 fold
  increase of binding sites: 1.2 fold
  main force of the binding: Electrostatic interaction
  ΔS^θ: 50.94±0.31 J/mol·K
β 2-AR [2]; 37 °C
  contribution of ΔH^θ to ΔG^θ: 29.15%
  contribution of ΔS^θ to ΔG^θ: 70.85%
β 2-AR [2]; 45 °C
  binding sites: 948 µM
  capacity factor on the β 2-AR column: 4.63
β 2-AR [2]; 283.15 K
  Kd: 139 µM
β 2-AR [2]; 293.15 K
  Kd: 149 µM
β 2-AR [2]; 303.15 K
  Kd: 161 µM
β 2-AR [2]; 310.15 K
  Kd: 168 µM
β 2-AR [2]; 318.15 K
  Kd: 193 µM
β2-ARGsαS
  Kd: 5.1 ± 1.3 µM
wild-type β 2-AR
  Kd: 8 µM
β 2-AR [3]
  Kd: 168 µM
  concentration of the binding site: (8.92±0.06) ×10^−4 M
  types of binding site on β 2-AR: Only one type of binding site
β 2-AR [3]; 4 µM ephedrine in mobile phase
  capacity factor k′: 5.01±0.02
β 2-AR [3]; 8 µM ephedrine in mobile phase
  capacity factor k′: 4.84±0.02
β 2-AR [3]; [4]
  capacity factor k′: 4.58±0.03
β 2-AR [3]; 20 µM ephedrine in mobile phase
  capacity factor k′: 4.31±0.01
β 2-AR [3]; [5]
  capacity factor k′: 4.08±0.01
β 2-AR [3]; [6]
  capacity factor k′: 3.80±0.01
β 2-AR [3]; 34 µM ephedrine in mobile phase
  capacity factor k′: 3.64±0.01
β 2-AR [3]; direct competitive study, pseudoephedrine injected, ephedrine as mobile phase additive
  association constant: (5.98±0.24)×10^3 /M
β 2-AR [3]; injection analyte ephedrine (self-competitive)
  association constant KA: KA ephedrine = (5.94±0.05)×10^3 M^−1
β 2-AR [3]; injection analyte ephedrine (self-competitive), listed as 1R,2S-ephedrine
  association constant KA: (5.94±0.05)×10^3 M^−1
β 2-AR [3]; injection analyte pseudoephedrine (direct competitive, ephedrine in mobile phase)
  association constant KA: KA ephedrine = (5.98±0.24)×10^3 M^−1
β 2-AR [3]; self-competitive study, ephedrine as analyte and competing agent
  association constant: (5.94±0.05)×10^3 /M

## COC(=O)CCc1ccc(OCC(O)CNC(C)C)cc1 (centres unmarked) [esmolol]
Immobilized β 2-AR
  peak retained or non-retained on β 2-AR column: Non-retained
  Retention times, Immobilized β 2-AR: 1.6 min

## CN[C@@H](C)[C@@H](O)c1ccccc1 [pseudoephedrine, 1S,2S-pseudoephedrine]
β 2-AR [2]; 10 °C
  binding sites: 807 µM
  capacity factor on the β 2-AR column: 6.36
β 2-AR [2]
  decrease of association constant: 1.5 fold
  decrease of capacity factor: 1.2 fold
  increase of binding sites: 1.2 fold
  main force of the binding: electrostatic forces
  ΔS^θ: 44.13±0.01 J/mol·K
β 2-AR [2]; 45 °C
  binding sites: 948 µM
  capacity factor on the β 2-AR column: 5.60
β 2-AR [2]; 283.15 K
  Kd: 202 µM
β 2-AR [2]; 293.15 K
  Kd: 239 µM
β 2-AR [2]; 303.15 K
  Kd: 249 µM
β 2-AR [2]; 310.15 K
  Kd: 263 µM
β 2-AR [2]; 318.15 K
  Kd: 299 µM
β 2-AR [1]
  EC50: 309 µM
β 2-AR [3]
  concentration of the binding site: (8.92±0.06) ×10^−4 M
  types of binding site on β 2-AR: Only one type of binding site
β 2-AR [3]; 2 µM ephedrine in mobile phase
  capacity factor k′: 5.87±0.01
β 2-AR [3]; 4 µM ephedrine in mobile phase
  capacity factor k′: 5.81±0.01
β 2-AR [3]; 8 µM ephedrine in mobile phase
  capacity factor k′: 5.73±0.01
β 2-AR [3]; [4]
  capacity factor k′: 5.66±0.01
β 2-AR [3]; 16 µM ephedrine in mobile phase
  capacity factor k′: 5.54±0.03
β 2-AR [3]; [5]
  capacity factor k′: 5.47±0.03
β 2-AR [3]; [6]
  capacity factor k′: 5.38±0.01

## COc1cc2nc(N3CCN(C(=O)C4CCCO4)CC3)nc(N)c2cc1OC (centres unmarked) [terazosin]
Immobilized β 2-AR
  peak retained or non-retained on β 2-AR column: Non-retained
  Retention times, Immobilized β 2-AR: 1.6 min

## CC(C)(C)NCC(O)c1ccccc1Cl (centres unmarked) [tobuterol]
Immobilized β 2-AR
  peak retained or non-retained on β 2-AR column: Retained
  Retention times, Immobilized β 2-AR: 12.5 min
Immobilized β 2-AR; listed as Tobuterol
  Retention times, Immobilized β 2-AR: 9.9 min
